≈ marks a conversion by molar mass, not a printed value. Calls of active or inactive are those of the source. The rule behind the calls is not given here.

Holding throughout (assay type): functional
Test [1] relates to Pseudoperonospora cubensis. In words: Antifungal activity against Pseudoperonospora cubensis after 72 hrs by agar diffusion method.
The test system of a further test is Pyricularia oryzae. Put plainly: Antifungal activity against Pyricularia oryzae after 48 hrs by agar diffusion method. For orientation: Agar diffusion results depend on both activity and mobility in agar.
In another test the test system is Phytophthora infestans. Put plainly: Antifungal activity against Phytophthora infestans after 72 hrs by agar diffusion method.
Another test deals with Klebsiella pneumoniae. Put plainly: Antibacterial activity against Klebsiella pneumoniae after 24 hrs by spectrophotometry.
The subject of another test is Bacillus subtilis. Put plainly: Antibacterial activity against Bacillus subtilis after 24 hrs by spectrophotometry.
The next test has as its system Enterobacter. In words: Antibacterial activity against Enterobacter after 24 hrs by spectrophotometry.
The next test concerns Podosphaera fuliginea. Put plainly: Antifungal activity against Sphaerotheca fuliginea after 72 hrs by agar diffusion method.

A word on the MIC: it is the lowest concentration that inhibits growth of the organism. The MBC is the lowest tested concentration that kills the bacteria rather than only halting them. Turning to `Cc1ccccc1OCC(=O)NN1C(c2ccccc2)=C(c2ccccc2)OC12C(=O)Nc1ccccc12` (stereo not given), the MIC is 8 µg/mL (≈ 15.9 µM) in test [1]; 17 µg/mL (≈ 33.8 µM) with Pyricularia oryzae; 18 µg/mL (≈ 35.7 µM) against Phytophthora infestans; 30 µg/mL (≈ 59.6 µM) in the test on Enterobacter; 12 µg/mL (≈ 23.8 µM) against Podosphaera fuliginea. Also, the MBC entry with Klebsiella pneumoniae and with Bacillus subtilis was “inactive” each time. Besides, the MIC result in the test with Klebsiella pneumoniae and with Bacillus subtilis was “inactive” each time. For the same compound, the MBC in the test with Enterobacter was 50 µg/mL (≈ 99.3 µM).
As for `O=C(O)c1cn(C2CC2)c2cc(N3CCNCC3)c(F)cc2c1=O` [CIPROFLOXACIN], the MBC in the test with Klebsiella pneumoniae amounted to 25 µg/mL (≈ 75.4 µM); with Bacillus subtilis it was 12.5 µg/mL (≈ 37.7 µM); against Enterobacter, 25 µg/mL (≈ 75.4 µM). Further, the results for the MIC against Klebsiella pneumoniae, in the test on Bacillus subtilis and with Enterobacter were 6.25 µg/mL (≈ 18.9 µM), 6.25 µg/mL (≈ 18.9 µM) and 10.2 µg/mL (≈ 30.9 µM), respectively.
Turning to `Cc1ccc(OCC(=O)NN2C(c3ccccc3)=C(c3ccccc3)OC23C(=O)Nc2ccccc23)cc1` (stereo not given), the MIC turned out to be 12 µg/mL (≈ 23.8 µM) in test [1]; 8 µg/mL (≈ 15.9 µM) against Pyricularia oryzae; 14 µg/mL (≈ 27.8 µM) against Phytophthora infestans; 50 µg/mL (≈ 99.3 µM) in the test with Enterobacter; 12 µg/mL (≈ 23.8 µM) in the test with Podosphaera fuliginea. The MBC entry with Klebsiella pneumoniae and with Bacillus subtilis was “inactive” throughout. Further, the MIC result with Klebsiella pneumoniae and with Bacillus subtilis was “inactive” in each case. Besides, the MBC against Enterobacter is 100 µg/mL (≈ 199 µM).
`O=C(COc1ccccc1)NN1C(c2ccccc2)=C(c2ccccc2)OC12C(=O)Nc1ccccc12` (stereo not given): the MIC in test [1] is 12 µg/mL (≈ 24.5 µM); against Pyricularia oryzae, 15 µg/mL (≈ 30.6 µM); in the test with Phytophthora infestans it was 14 µg/mL (≈ 28.6 µM); against Bacillus subtilis, 50 µg/mL (≈ 102 µM); in the test with Enterobacter it was 40 µg/mL (≈ 81.7 µM); against Podosphaera fuliginea, 16 µg/mL (≈ 32.7 µM). Moreover, in the test with Klebsiella pneumoniae, the MBC result was “inactive”. For the same compound, in the test with Klebsiella pneumoniae, the MIC result is “inactive”. Moreover, the MBC against Bacillus subtilis and in the test on Enterobacter was 100 µg/mL (≈ 204 µM) throughout.
In the case of `O=C(NN1C(c2ccccc2)=C(c2ccccc2)OC12C(=O)Nc1ccccc12)c1ccc(Cl)cc1` (stereo not given), the MIC in test [1] was 12 µg/mL (≈ 24.3 µM); in the test on Pyricularia oryzae, 14 µg/mL (≈ 28.3 µM); in the test on Phytophthora infestans it was 14 µg/mL (≈ 28.3 µM); in the test on Klebsiella pneumoniae, 50 µg/mL (≈ 101 µM); in the test on Bacillus subtilis it was 50 µg/mL (≈ 101 µM); with Enterobacter, 30 µg/mL (≈ 60.7 µM). The compound further had an MIC in the test with Podosphaera fuliginea of 12 µg/mL (≈ 24.3 µM). In addition, the values for the MBC against Klebsiella pneumoniae, in the test on Bacillus subtilis and against Enterobacter were 100 µg/mL (≈ 202 µM), 100 µg/mL (≈ 202 µM) and 50 µg/mL (≈ 101 µM), respectively.
For the compound `O=C(NN1C(c2ccccc2)=C(c2ccccc2)OC12C(=O)Nc1ccccc12)c1ccccc1O` (stereo not given), the MIC in test [1] was found to be 12 µg/mL (≈ 25.2 µM); with Pyricularia oryzae, 16 µg/mL (≈ 33.6 µM); against Phytophthora infestans, 14 µg/mL (≈ 29.4 µM); against Bacillus subtilis, 70 µg/mL (≈ 147 µM); in the test with Enterobacter, 40 µg/mL (≈ 84.1 µM); with Podosphaera fuliginea, 12 µg/mL (≈ 25.2 µM). For the same compound, the MBC entry in the test with Klebsiella pneumoniae is “inactive”. Also, the MIC result in the test on Klebsiella pneumoniae is “inactive”. For the same compound, the MBC against Bacillus subtilis is 100 µg/mL (≈ 210 µM); against Enterobacter it was 50 µg/mL (≈ 105 µM).
Turning to `Cc1cccc(OCC(=O)NN2C(c3ccccc3)=C(c3ccccc3)OC23C(=O)Nc2ccccc23)c1` (stereo not given), the MIC entry (in test [1]; in the test on Klebsiella pneumoniae; in the test with Bacillus subtilis; in the test with Podosphaera fuliginea) was “inactive” throughout. The results for the minimum inhibitory concentration (MIC) in the test on Pyricularia oryzae, against Phytophthora infestans and in the test with Enterobacter were 20 µg/mL (≈ 39.7 µM), 12 µg/mL (≈ 23.8 µM) and 40 µg/mL (≈ 79.4 µM), respectively. Further, the MBC entry with Klebsiella pneumoniae and in the test on Bacillus subtilis was “inactive” each time. For the same compound, in the test with Enterobacter, the MBC was determined as 100 µg/mL (≈ 199 µM).
As to `O=C(NN1C(c2ccccc2)=C(c2ccccc2)OC12C(=O)Nc1ccccc12)c1ccc([N+](=O)[O-])cc1` (stereo not given), the MIC in test [1] was found to be 18 µg/mL (≈ 35.7 µM); with Pyricularia oryzae, 16 µg/mL (≈ 31.7 µM); with Phytophthora infestans, 12 µg/mL (≈ 23.8 µM); against Bacillus subtilis, 30 µg/mL (≈ 59.5 µM); with Enterobacter, 30 µg/mL (≈ 59.5 µM); with Podosphaera fuliginea, 12 µg/mL (≈ 23.8 µM). In addition, in the test on Klebsiella pneumoniae, the MBC entry was “inactive”. Also, the MIC entry with Klebsiella pneumoniae was “inactive”. The MBC against Bacillus subtilis and with Enterobacter was 50 µg/mL (≈ 99.1 µM) throughout.
Take NYSTATIN: the MIC in test [1] turned out to be 18 µg/mL; against Pyricularia oryzae, 20 µg/mL; against Phytophthora infestans, 18 µg/mL; against Podosphaera fuliginea, 18 µg/mL.
`O=C(COc1ccc(Cl)cc1Cl)NN1C(c2ccccc2)=C(c2ccccc2)OC12C(=O)Nc1ccccc12` (stereo not given): the MIC result (in test [1]; with Pyricularia oryzae; in the test with Phytophthora infestans) was “inactive” throughout. In addition, the figures for the MBC with Klebsiella pneumoniae, with Bacillus subtilis and against Enterobacter were 50 µg/mL (≈ 89.5 µM), 50 µg/mL (≈ 89.5 µM) and 100 µg/mL (≈ 179 µM), respectively. The MIC with Klebsiella pneumoniae was found to be 25 µg/mL (≈ 44.8 µM); against Bacillus subtilis it was 25 µg/mL (≈ 44.8 µM); against Enterobacter it was 40 µg/mL (≈ 71.6 µM); with Podosphaera fuliginea it was 14 µg/mL (≈ 25.1 µM).
`COc1ccc(C(=O)NN2C(c3ccccc3)=C(c3ccccc3)OC23C(=O)Nc2ccccc23)cc1` (stereo not given): the MIC was 14 µg/mL (≈ 28.6 µM) in test [1]; 12 µg/mL (≈ 24.5 µM) with Pyricularia oryzae; 14 µg/mL (≈ 28.6 µM) with Phytophthora infestans; 100 µg/mL (≈ 204 µM) against Bacillus subtilis; 50 µg/mL (≈ 102 µM) with Enterobacter; 8 µg/mL (≈ 16.3 µM) against Podosphaera fuliginea. In the test on Klebsiella pneumoniae, the MBC entry was “inactive”. Besides, the MIC result in the test on Klebsiella pneumoniae was “inactive”. Besides, the values for the minimum bactericidal concentration (MBC) in the test with Bacillus subtilis and against Enterobacter were 200 µg/mL (≈ 409 µM) and 100 µg/mL (≈ 204 µM), respectively.

The values are drawn from ChEMBL document CHEMBL3792294, “Efficient synthesis of new 2,3-dihydrooxazole-spirooxindoles hybrids as antimicrobial agents” (2016).
